Columns and labels:
Melanocortin receptor 4 [1] = target: T1, Melanocortin receptor 4 (Homo sapiens, UniProt P32245); experiment: Displacement of [125I]NDP-alpha-MSH from human MC4 receptor expressed in CHO cells; assay type: cell-based
Melanocortin receptor 4 [2] = target: T1, Melanocortin receptor 4; experiment: Agonist activity at human MC4 receptor expressed in CHO cells assessed as increase of alpha-MSH-induced cAMP accumulation; assay type: functional, cell-based
Melanocortin receptor 4 [3] = target: T1, Melanocortin receptor 4; experiment: Agonist activity at human MC4 receptor expressed in CHO cells assessed as increase of alpha-MSH-induced cAMP accumulation at 10 uM relative to alpha-MSH; assay type: functional, cell-based
Homo sapiens [4] = species: Homo sapiens; experiment: Selectivity ratio of IC50 for human MC1 receptor to IC50 for human MC4 receptor
Melanocortin receptor 5 [5] = target: T2, Melanocortin receptor 5 (Homo sapiens, UniProt P33032); experiment: Agonist activity at human MC5 receptor expressed in CHO cells assessed as increase of alpha-MSH-induced cAMP accumulation at 10 uM relative to alpha-MSH; assay type: functional, cell-based
Melanocortin receptor 3 [6] = target: T3, Melanocortin receptor 3 (Homo sapiens, UniProt P41968); experiment: Agonist activity at human MC3 receptor expressed in CHO cells assessed as increase of alpha-MSH-induced cAMP accumulation at 10 uM relative to alpha-MSH; assay type: functional, cell-based
Homo sapiens [7] = species: Homo sapiens; experiment: Selectivity ratio of IC50 for human MC5 receptor to IC50 for human MC4 receptor
Homo sapiens [8] = species: Homo sapiens; experiment: Selectivity ratio of EC50 for human MC5 receptor to EC50 for human MC4 receptor
[9] = target: T4, Melanocyte-stimulating hormone receptor (Homo sapiens, UniProt Q01726); experiment: Agonist activity at human MC1 receptor expressed in CHO cells assessed as increase of alpha-MSH-induced cAMP accumulation at 10 uM relative to alpha-MSH; assay type: functional, cell-based
Target sequence in this assay (Q01726 whole entry, looked up): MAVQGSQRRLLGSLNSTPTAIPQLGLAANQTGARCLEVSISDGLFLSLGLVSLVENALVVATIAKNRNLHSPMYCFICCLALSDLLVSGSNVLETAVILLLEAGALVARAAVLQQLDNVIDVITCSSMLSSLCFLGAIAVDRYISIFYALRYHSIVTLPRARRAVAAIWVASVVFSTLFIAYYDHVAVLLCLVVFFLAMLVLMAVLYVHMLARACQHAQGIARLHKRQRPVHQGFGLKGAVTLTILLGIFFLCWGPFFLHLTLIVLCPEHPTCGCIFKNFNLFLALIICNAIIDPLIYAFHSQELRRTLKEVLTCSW

Homo sapiens [10] = species: Homo sapiens; experiment: Selectivity ratio of EC50 for human MC1 receptor to EC50 for human MC4 receptor
Melanocortin receptor 5 [11] = target: T2, Melanocortin receptor 5; experiment: Agonist activity at human MC5 receptor expressed in CHO cells assessed as increase of alpha-MSH-induced cAMP accumulation; assay type: functional, cell-based
Melanocortin receptor 3 [12] = target: T3, Melanocortin receptor 3; experiment: Agonist activity at human MC3 receptor expressed in CHO cells assessed as increase of alpha-MSH-induced cAMP accumulation; assay type: functional, cell-based
[13] = target: T4, Melanocyte-stimulating hormone receptor; experiment: Displacement of [125I]NDP-alpha-MSH from human MC1 receptor expressed in CHO cells; assay type: cell-based
Target sequence in this assay (Q01726 whole entry): as the sequence (Q01726 whole entry, looked up) above

Melanocortin receptor 3 [14] = target: T3, Melanocortin receptor 3; experiment: Displacement of [125I]NDP-alpha-MSH from human MC3 receptor expressed in CHO cells; assay type: cell-based
Melanocortin receptor 5 [15] = target: T2, Melanocortin receptor 5; experiment: Displacement of [125I]NDP-alpha-MSH from human MC5 receptor expressed in CHO cells; assay type: cell-based
[16] = target: T4, Melanocyte-stimulating hormone receptor; experiment: Agonist activity at human MC1 receptor expressed in CHO cells assessed as increase of alpha-MSH-induced cAMP accumulation; assay type: functional, cell-based
Target sequence in this assay (Q01726 whole entry): as the sequence (Q01726 whole entry, looked up) above

T1 sequence (P32245 whole entry): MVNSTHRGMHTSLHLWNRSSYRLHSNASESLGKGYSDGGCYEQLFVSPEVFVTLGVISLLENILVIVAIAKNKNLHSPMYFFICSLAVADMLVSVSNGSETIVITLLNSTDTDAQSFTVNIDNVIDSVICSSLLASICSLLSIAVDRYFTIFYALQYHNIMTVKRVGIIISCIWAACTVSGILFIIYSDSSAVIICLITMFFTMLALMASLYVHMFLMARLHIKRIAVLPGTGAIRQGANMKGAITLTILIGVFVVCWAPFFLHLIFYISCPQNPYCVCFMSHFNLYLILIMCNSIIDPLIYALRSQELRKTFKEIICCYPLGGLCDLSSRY
T2 sequence (P33032 whole entry): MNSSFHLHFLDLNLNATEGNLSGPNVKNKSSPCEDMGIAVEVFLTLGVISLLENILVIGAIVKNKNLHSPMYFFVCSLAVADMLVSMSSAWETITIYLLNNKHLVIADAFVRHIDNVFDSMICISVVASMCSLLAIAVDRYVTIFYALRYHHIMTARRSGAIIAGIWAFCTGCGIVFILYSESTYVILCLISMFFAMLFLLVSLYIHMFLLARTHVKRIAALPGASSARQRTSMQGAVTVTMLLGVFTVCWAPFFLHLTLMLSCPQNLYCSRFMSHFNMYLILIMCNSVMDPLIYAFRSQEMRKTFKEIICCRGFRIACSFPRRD
T3 sequence (P41968 whole entry): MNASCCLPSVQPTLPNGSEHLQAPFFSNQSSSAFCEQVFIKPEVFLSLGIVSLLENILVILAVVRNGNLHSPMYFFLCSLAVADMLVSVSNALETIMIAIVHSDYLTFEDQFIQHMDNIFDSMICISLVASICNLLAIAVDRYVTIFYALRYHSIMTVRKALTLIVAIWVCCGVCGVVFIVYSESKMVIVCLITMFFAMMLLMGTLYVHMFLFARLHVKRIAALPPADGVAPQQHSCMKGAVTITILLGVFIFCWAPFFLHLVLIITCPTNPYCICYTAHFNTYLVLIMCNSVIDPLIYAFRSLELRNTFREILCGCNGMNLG

Compound | IC50 (Melanocortin receptor 4 [1]) [nM] | EC50 (Melanocortin receptor 4 [2]) [nM] | Activity (Melanocortin receptor 4 [3]) [%] | other results
CC(C)N(CC(N1CCN(C(=O)[C@@H]2CN(C(C)(C)C)C[C@H]2c2ccc(F)cc2F)CC1)C(C)(C)C)S(C)(=O)=O (stereo in doubt; 27A) [listing 1 of 2 here] |  |  | 88 | 
CC(=O)N(CC(CC(C)C)N1CCN(C(=O)[C@@H]2CN(C(C)(C)C)C[C@H]2c2ccc(F)cc2F)CC1)C(C)C (single isomer, unassigned; diastereomer 2) [listing 1 of 2 here] |  |  | 113 | Ratio IC50 (Homo sapiens [4]): 20; Activity (Melanocortin receptor 5 [5]): 56%; Activity (Melanocortin receptor 3 [6]): 109%; Ratio IC50 (Homo sapiens [7]): 20; Ratio EC50 (Homo sapiens [8]): 20; Activity [9]: 77%; Ratio EC50 (Homo sapiens [10]): 20
CC(C)N(CC(C1CCCCC1)N1CCN(C(=O)[C@@H]2CN(C(C)(C)C)C[C@H]2c2ccc(F)cc2F)CC1)C(=O)c1cccnn1 (single isomer, unassigned; diastereomer 1) [listing 1 of 2 here] | 18 | 5.4 |  | EC50 (Melanocortin receptor 5 [11]): 490 nM; EC50 (Melanocortin receptor 3 [12]): 90 nM; IC50 [13]: 1900 nM; IC50 (Melanocortin receptor 3 [14]): 770 nM; IC50 (Melanocortin receptor 5 [15]): 130 nM; EC50 [16]: 1200 nM
CC(C)N(CC(C1CCCCC1)N1CCN(C(=O)[C@@H]2CN(C(C)(C)C)C[C@H]2c2ccc(F)cc2F)CC1)C(=O)c1cccnn1 (single isomer, unassigned; diastereomer 2) [listing 1 of 2 here] |  |  | 99 | 
CC(C)N(CC(C1CCCCC1)N1CCN(C(=O)[C@@H]2CN(C(C)(C)C)C[C@H]2c2ccc(F)cc2F)CC1)C(=O)c1ncccn1 (stereo in doubt; 22B) [listing 1 of 2 here] |  |  | 88 | 
CC(=O)N(CC(C1CCCCC1)N1CCN(C(=O)[C@@H]2CN(C(C)(C)C)C[C@H]2c2ccc(F)cc2F)CC1)C(C)C (stereo in doubt; 19B) |  |  | 123 | Ratio IC50 (Homo sapiens [4]): 20; Activity (Melanocortin receptor 5 [5]): 64%; Activity (Melanocortin receptor 3 [6]): 81%; Ratio IC50 (Homo sapiens [7]): 20; Ratio EC50 (Homo sapiens [8]): 20; Activity [9]: 61%; Ratio EC50 (Homo sapiens [10]): 20
CC(=O)N(CC(C1CCCCC1)N1CCN(C(=O)[C@@H]2CN(C(C)(C)C)C[C@H]2c2ccc(F)cc2F)CC1)C(C)C (single isomer, unassigned; diastereomer 1) [listing 1 of 2 here] | 29 | 50 |  | 
CC(C)CC(CN(C(C)C)S(C)(=O)=O)N1CCN(C(=O)[C@@H]2CN(C(C)(C)C)C[C@H]2c2ccc(F)cc2F)CC1 (single isomer, unassigned; diastereomer 2) | 27 | 19 |  | EC50 (Melanocortin receptor 5 [11]): > 5000 nM; EC50 (Melanocortin receptor 3 [12]): 2500 nM; IC50 [13]: 5000 nM; IC50 (Melanocortin receptor 3 [14]): 4900 nM; IC50 (Melanocortin receptor 5 [15]): 2800 nM; EC50 [16]: > 5000 nM
CC(C)NCC(C1CCCCC1)N1CCN(C(=O)[C@@H]2CN(C(C)(C)C)C[C@H]2c2ccc(F)cc2F)CC1 (stereo partly drawn) | 310 | 240 | 95 | 
CC(C)N(CC(C1CCCCC1)N1CCN(C(=O)[C@@H]2CN(C(C)(C)C)C[C@H]2c2ccc(F)cc2F)CC1)C(=O)c1cccnn1 (single isomer, unassigned; diastereomer 2) [listing 2 of 2 here] | 64 | 9.1 |  | 
CC(=O)N(CC(N1CCN(C(=O)[C@@H]2CN(C(C)(C)C)C[C@H]2c2ccc(F)cc2F)CC1)C(C)(C)C)C(C)C (single isomer, unassigned; diastereomer 1) [listing 1 of 2 here] |  |  |  | IC50 (Melanocortin receptor 4 [1]; cho): 150 nM; EC50 (Melanocortin receptor 4 [2]; cho): 180 nM
CC(C)N(CC(C1CCCCC1)N1CCN(C(=O)[C@@H]2CN(C(C)(C)C)C[C@H]2c2ccc(F)cc2F)CC1)S(C)(=O)=O (single isomer, unassigned; diastereomer 1) [listing 1 of 2 here] | 15 | 25 |  | 
CC(C)CC(CN(C(C)C)S(C)(=O)=O)N1CCN(C(=O)[C@@H]2CN(C(C)(C)C)C[C@H]2c2ccc(F)cc2F)CC1 (single isomer, unassigned; diastereomer 1) [listing 1 of 2 here] | 88 | 47 |  | 
CC(C)CC(CN(C(C)C)S(C)(=O)=O)N1CCN(C(=O)[C@@H]2CN(C(C)(C)C)C[C@H]2c2ccc(F)cc2F)CC1 (single isomer, unassigned; diastereomer 1) [listing 2 of 2 here] |  |  | 117 | 
CC(=O)N(CC(CC(C)C)N1CCN(C(=O)[C@@H]2CN(C(C)(C)C)C[C@H]2c2ccc(F)cc2F)CC1)C(C)C (single isomer, unassigned; diastereomer 2) [listing 2 of 2 here] | 23 | 9.7 |  | EC50 (Melanocortin receptor 5 [11]): > 5000 nM; EC50 (Melanocortin receptor 3 [12]): 880 nM; IC50 [13]: 3600 nM; IC50 (Melanocortin receptor 3 [14]): 4700 nM; IC50 (Melanocortin receptor 5 [15]): 1100 nM; EC50 [16]: 560 nM
CC(=O)N(CC(N1CCN(C(=O)[C@@H]2CN(C(C)(C)C)C[C@H]2c2ccc(F)cc2F)CC1)C(C)(C)C)C(C)C (single isomer, unassigned; diastereomer 1) [listing 2 of 2 here] |  |  | 89 | 
CC(C)N(CC(C1CCCCC1)N1CCN(C(=O)[C@@H]2CN(C(C)(C)C)C[C@H]2c2ccc(F)cc2F)CC1)S(C)(=O)=O (single isomer, unassigned; diastereomer 1) [listing 2 of 2 here] |  |  | 114 | 
CC(C)N(CC(C1CCCCC1)N1CCN(C(=O)[C@@H]2CN(C(C)(C)C)C[C@H]2c2ccc(F)cc2F)CC1)C(=O)c1cnn(C(C)C)c1 (single isomer, unassigned; diastereomer 1) [listing 2 of 2 here] | 18 | 6.4 |  | EC50 (Melanocortin receptor 5 [11]): 1000 nM; EC50 (Melanocortin receptor 3 [12]): 79 nM; IC50 [13]: 730 nM; IC50 (Melanocortin receptor 3 [14]): 870 nM; IC50 (Melanocortin receptor 5 [15]): 620 nM; EC50 [16]: 520 nM
CC(C)N(CC(C1CCCCC1)N1CCN(C(=O)[C@@H]2CN(C(C)(C)C)C[C@H]2c2ccc(F)cc2F)CC1)C(=O)c1ncccn1 (stereo in doubt; 22B) [listing 2 of 2 here] | 130 | 15 |  | 
CC(C)N(CC(C1CCCCC1)N1CCN(C(=O)[C@@H]2CN(C(C)(C)C)C[C@H]2c2ccc(F)cc2F)CC1)C(=O)c1ncccn1 (single isomer, unassigned; diastereomer 1) |  |  | 98 | 
CC(=O)N(CC(CC(C)C)N1CCN(C(=O)[C@@H]2CN(C(C)(C)C)C[C@H]2c2ccc(F)cc2F)CC1)C(C)C (single isomer, unassigned; diastereomer 1) [listing 2 of 2 here] | 49 | 29 |  | 
CC(C)N(CC(C1CCCCC1)N1CCN(C(=O)[C@@H]2CN(C(C)(C)C)C[C@H]2c2ccc(F)cc2F)CC1)C(=O)c1cccnn1 (single isomer, unassigned; diastereomer 1) [listing 2 of 2 here] |  |  | 102 | Activity (Melanocortin receptor 5 [5]): 68%; Activity (Melanocortin receptor 3 [6]): 108%; Activity [9]: 58%

Now from value to compound, other results behind:

IC50 (Melanocortin receptor 4 [1]) [nM] | EC50 (Melanocortin receptor 4 [2]) [nM] | Activity (Melanocortin receptor 4 [3]) [%] | Compound | other results
62 | 19 |  | CC(C)N(CC(C1CCCCC1)N1CCN(C(=O)[C@@H]2CN(C(C)(C)C)C[C@H]2c2ccc(F)cc2F)CC1)C(=O)c1cnn(C(C)C)c1 (single isomer, unassigned; diastereomer 2) [listing 1 of 2 here] | 
1900 | 6700 | 10 | CC(C)CN(CC(C)C)CC(C1CCCCC1)N1CCN(C(=O)[C@@H]2CN(C(C)(C)C)C[C@H]2c2ccc(F)cc2F)CC1 (stereo partly drawn) | 
150 | 180 |  | CC(=O)N(CC(N1CCN(C(=O)[C@@H]2CN(C(C)(C)C)C[C@H]2c2ccc(F)cc2F)CC1)C(C)(C)C)C(C)C (single isomer, unassigned; diastereomer 2) [listing 1 of 2 here] | 
46 | 44 |  | CC(C)N(CC(N1CCN(C(=O)[C@@H]2CN(C(C)(C)C)C[C@H]2c2ccc(F)cc2F)CC1)C(C)(C)C)S(C)(=O)=O (stereo in doubt; 27B) [listing 1 of 2 here] | 
 |  | 101 | CC(=O)N(CC(CC(C)C)N1CCN(C(=O)[C@@H]2CN(C(C)(C)C)C[C@H]2c2ccc(F)cc2F)CC1)C(C)C (single isomer, unassigned; diastereomer 1) [listing 1 of 2 here] | 
 |  | 102 | CC(C)N(CC(N1CCN(C(=O)[C@@H]2CN(C(C)(C)C)C[C@H]2c2ccc(F)cc2F)CC1)C(C)(C)C)S(C)(=O)=O (stereo in doubt; 27B) [listing 2 of 2 here] | 
 |  | 106 | CC(C)N(CC(C1CCCCC1)N1CCN(C(=O)[C@@H]2CN(C(C)(C)C)C[C@H]2c2ccc(F)cc2F)CC1)C(=O)c1cnn(C(C)C)c1 (single isomer, unassigned; diastereomer 1) [listing 1 of 2 here] | Ratio IC50 (Homo sapiens [4]): 20; Activity (Melanocortin receptor 5 [5]): 62%; Activity (Melanocortin receptor 3 [6]): 102%; Ratio IC50 (Homo sapiens [7]): 20; Ratio EC50 (Homo sapiens [8]): 20; Activity [9]: 60%; Ratio EC50 (Homo sapiens [10]): 20
 |  | 94 | CC(=O)N(CC(N1CCN(C(=O)[C@@H]2CN(C(C)(C)C)C[C@H]2c2ccc(F)cc2F)CC1)C(C)(C)C)C(C)C (single isomer, unassigned; diastereomer 2) [listing 2 of 2 here] | 
 |  | 81 | CC(C)N(CC(C1CCCCC1)N1CCN(C(=O)[C@@H]2CN(C(C)(C)C)C[C@H]2c2ccc(F)cc2F)CC1)C(=O)c1cnn(C(C)C)c1 (single isomer, unassigned; diastereomer 2) [listing 2 of 2 here] | 
 |  | 134 | CC(=O)N(CC(C1CCCCC1)N1CCN(C(=O)[C@@H]2CN(C(C)(C)C)C[C@H]2c2ccc(F)cc2F)CC1)C(C)C (single isomer, unassigned; diastereomer 1) [listing 2 of 2 here] | 
53 | 19 |  | CC(C)N(CC(N1CCN(C(=O)[C@@H]2CN(C(C)(C)C)C[C@H]2c2ccc(F)cc2F)CC1)C(C)(C)C)S(C)(=O)=O (stereo in doubt; 27A) [listing 2 of 2 here] | 
200 | 710 | 97 | CCCN(CCC)CC(C1CCCCC1)N1CCN(C(=O)[C@@H]2CN(C(C)(C)C)C[C@H]2c2ccc(F)cc2F)CC1 (stereo partly drawn) | 

From ChEMBL document CHEMBL1208738, “Optimization of privileged structures for selective and potent melanocortin subtype-4 receptor ligands” (Bioorg Med Chem Lett, 2010)
